# Activity calls are given as the source filed them.
# Columns and labels:
# [1] = molecular target: T1, Protein RecA (Mycobacterium tuberculosis, UniProt P9WHJ3); assay: Fluorescence Cell-Free Homogeneous Dose Retest to Identify Inhibitors of RecA-Intein Splicing Activity. [Related pubchem assays (depositor defined):AID2097, AID2223, AID489010, AID492950]; type: functional
# T1 sequence (P9WHJ3 whole entry): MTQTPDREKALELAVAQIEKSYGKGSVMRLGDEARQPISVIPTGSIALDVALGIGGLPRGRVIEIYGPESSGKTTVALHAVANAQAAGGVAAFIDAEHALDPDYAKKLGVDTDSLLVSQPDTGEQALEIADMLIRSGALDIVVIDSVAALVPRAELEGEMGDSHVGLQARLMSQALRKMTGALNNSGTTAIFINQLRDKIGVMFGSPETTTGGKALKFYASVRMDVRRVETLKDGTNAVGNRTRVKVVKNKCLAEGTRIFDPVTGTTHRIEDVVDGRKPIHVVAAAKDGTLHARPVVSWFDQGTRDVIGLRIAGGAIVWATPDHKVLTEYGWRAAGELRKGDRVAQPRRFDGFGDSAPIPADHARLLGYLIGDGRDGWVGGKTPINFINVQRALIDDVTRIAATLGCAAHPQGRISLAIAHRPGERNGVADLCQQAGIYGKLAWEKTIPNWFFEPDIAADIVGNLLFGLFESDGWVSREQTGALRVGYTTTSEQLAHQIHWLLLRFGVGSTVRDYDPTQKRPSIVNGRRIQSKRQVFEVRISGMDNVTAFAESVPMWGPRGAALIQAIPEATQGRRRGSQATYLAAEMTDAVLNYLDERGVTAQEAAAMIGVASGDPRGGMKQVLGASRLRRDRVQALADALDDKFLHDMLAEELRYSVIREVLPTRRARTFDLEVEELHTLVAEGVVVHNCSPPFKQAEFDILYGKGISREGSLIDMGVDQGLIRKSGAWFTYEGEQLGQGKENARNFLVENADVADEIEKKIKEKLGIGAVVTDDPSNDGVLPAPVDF
# [2] = molecular target: T2, Replicative DNA helicase DnaB (Mycobacterium tuberculosis, UniProt P9WMR3); assay: DnaB intein splicing inhibitors, dose response, biochemical, cell-free fluorescence (AID 449749); type: functional
# T2 sequence (P9WMR3 whole entry): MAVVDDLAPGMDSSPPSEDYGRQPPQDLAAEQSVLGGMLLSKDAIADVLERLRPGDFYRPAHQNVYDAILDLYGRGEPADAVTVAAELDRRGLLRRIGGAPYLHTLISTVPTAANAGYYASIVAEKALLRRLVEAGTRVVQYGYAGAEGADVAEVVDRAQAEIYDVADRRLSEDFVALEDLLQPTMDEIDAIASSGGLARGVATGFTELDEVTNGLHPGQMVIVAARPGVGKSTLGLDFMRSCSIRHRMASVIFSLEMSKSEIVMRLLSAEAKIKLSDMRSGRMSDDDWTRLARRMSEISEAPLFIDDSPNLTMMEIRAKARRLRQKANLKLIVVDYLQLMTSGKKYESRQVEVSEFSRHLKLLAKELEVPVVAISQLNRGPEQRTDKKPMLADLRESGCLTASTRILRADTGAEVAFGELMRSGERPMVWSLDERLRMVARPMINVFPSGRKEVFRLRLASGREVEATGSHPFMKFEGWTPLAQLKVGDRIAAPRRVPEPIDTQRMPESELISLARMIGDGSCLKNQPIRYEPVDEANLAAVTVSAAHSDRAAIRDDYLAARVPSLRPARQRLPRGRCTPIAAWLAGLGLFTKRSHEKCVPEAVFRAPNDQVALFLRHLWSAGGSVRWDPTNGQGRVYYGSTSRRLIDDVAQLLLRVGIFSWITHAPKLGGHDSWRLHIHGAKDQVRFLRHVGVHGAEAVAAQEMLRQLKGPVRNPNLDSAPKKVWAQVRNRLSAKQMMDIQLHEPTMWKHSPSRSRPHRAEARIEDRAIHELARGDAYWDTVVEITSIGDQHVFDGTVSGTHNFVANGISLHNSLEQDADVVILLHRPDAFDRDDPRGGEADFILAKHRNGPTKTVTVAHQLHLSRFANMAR
# [3] = molecular target: T3, Histone-lysine N-methyltransferase NSD2 (Homo sapiens, UniProt O96028); type: biochemical
# T3 sequence (O96028 whole entry): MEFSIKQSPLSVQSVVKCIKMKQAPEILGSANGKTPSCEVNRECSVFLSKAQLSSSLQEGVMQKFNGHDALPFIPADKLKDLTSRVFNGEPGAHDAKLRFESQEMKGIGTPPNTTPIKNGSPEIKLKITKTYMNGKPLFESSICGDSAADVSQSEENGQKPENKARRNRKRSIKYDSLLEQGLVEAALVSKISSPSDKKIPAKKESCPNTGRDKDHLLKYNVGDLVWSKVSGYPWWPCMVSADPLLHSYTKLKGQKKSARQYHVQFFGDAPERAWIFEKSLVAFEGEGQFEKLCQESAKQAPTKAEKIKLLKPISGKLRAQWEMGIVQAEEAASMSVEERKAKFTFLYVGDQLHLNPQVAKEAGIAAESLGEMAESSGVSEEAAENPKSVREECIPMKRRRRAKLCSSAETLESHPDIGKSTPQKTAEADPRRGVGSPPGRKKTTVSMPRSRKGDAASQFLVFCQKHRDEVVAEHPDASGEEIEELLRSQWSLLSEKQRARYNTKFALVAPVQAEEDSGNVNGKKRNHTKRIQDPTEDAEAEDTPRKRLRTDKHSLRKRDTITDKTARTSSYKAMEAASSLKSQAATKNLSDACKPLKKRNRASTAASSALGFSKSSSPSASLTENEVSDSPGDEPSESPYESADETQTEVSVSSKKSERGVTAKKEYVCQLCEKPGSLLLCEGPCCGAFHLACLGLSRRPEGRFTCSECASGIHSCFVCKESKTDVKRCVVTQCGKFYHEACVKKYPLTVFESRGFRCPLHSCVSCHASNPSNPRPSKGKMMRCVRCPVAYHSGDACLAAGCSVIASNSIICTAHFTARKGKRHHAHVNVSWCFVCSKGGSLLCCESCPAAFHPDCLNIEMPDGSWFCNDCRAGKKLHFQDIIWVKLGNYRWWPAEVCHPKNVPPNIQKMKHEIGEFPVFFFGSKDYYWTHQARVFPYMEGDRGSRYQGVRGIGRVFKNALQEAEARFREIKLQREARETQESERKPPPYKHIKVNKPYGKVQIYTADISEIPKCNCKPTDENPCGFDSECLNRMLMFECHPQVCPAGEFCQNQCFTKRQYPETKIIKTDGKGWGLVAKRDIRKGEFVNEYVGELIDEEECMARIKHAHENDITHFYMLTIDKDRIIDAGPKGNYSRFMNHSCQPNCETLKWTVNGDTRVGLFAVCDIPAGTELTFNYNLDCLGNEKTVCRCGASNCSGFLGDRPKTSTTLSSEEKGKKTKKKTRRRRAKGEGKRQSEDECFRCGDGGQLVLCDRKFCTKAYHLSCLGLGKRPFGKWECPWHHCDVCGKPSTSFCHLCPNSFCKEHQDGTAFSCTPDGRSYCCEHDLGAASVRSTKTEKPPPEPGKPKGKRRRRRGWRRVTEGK
# [4] = molecular target: T4, Calpain-2 catalytic subunit (Sus scrofa, UniProt P43367); assay: m-calpain protease blockers, concentration series – biochemical, fluorogenic peptide substrate, dose response (AID 1420); type: functional
# T4 sequence (P43367 whole entry): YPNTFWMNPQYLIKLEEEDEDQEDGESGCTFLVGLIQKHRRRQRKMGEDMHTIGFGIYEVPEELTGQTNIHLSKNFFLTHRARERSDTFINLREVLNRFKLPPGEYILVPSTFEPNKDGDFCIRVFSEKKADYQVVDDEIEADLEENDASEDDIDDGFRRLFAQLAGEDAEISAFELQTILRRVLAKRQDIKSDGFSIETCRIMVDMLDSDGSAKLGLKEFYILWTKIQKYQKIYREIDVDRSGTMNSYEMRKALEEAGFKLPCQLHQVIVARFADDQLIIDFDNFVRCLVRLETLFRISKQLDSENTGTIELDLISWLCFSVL
# [5] = tested on: INS1; assay: INS-1E survival protection against cytokine death – cell-based, luminescence, retest, dose response (AID 449756); type: functional; conditions: Rattus norvegicus;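 note: cell death triggered by IL-1 beta plus TNF-alpha plus IFN-gamma mixture; protective hits raise ATP signal compared with cytokine alone wells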
# [6] = Luminescence Cell-Based Dose Retest to Confirm Inhibitors of Cancer Stem Cells. [Related pubchem assays (depositor defined):AID2717, AID2721]; type: functional, Homo sapiens; conditions: Homo sapiens
# [7] = molecular target: T5, Ubiquitin-conjugating enzyme E2 N (Homo sapiens, UniProt P61088); type: functional;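 note: Dose-response confirmation in a TR-FRET assay detecting UBC13-driven polyubiquitin chain formation, inhibition measured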
# T5 sequence (P61088 whole entry): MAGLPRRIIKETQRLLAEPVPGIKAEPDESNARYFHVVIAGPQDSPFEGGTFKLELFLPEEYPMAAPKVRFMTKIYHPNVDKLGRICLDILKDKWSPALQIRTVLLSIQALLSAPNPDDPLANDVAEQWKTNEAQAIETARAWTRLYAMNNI
# [8] = molecular target: Nonstructural protein 1 (Influenza A virus, UniProt Q194T2); type: functional, Influenza A virus (A/California/07/2009(H1N1))
# [9] = molecular target: T6, Protein skinhead-1 (Caenorhabditis elegans, UniProt P34707); type: functional
# T6 sequence (P34707 whole entry): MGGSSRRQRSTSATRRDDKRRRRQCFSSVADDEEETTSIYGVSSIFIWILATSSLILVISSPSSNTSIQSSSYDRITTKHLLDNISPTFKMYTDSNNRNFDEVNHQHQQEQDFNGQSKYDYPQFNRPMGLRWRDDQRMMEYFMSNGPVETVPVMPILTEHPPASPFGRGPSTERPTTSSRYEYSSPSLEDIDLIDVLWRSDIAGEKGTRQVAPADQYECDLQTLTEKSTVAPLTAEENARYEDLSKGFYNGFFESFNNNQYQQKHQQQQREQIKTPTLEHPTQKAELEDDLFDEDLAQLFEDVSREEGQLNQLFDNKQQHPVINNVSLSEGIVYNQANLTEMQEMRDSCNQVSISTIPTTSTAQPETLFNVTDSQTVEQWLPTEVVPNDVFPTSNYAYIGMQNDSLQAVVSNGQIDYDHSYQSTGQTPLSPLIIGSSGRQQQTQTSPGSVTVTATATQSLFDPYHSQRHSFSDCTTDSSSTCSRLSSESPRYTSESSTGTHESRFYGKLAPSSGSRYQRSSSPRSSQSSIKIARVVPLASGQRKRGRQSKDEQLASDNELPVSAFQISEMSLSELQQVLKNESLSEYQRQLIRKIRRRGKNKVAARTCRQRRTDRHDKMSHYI
# [10] = molecular target: T7, Fatty acid synthase (Homo sapiens, UniProt P49327); assay: inhibition of human FAS-TE enzyme activity – biochemical, kinetic fluorescence intensity, dose response (AID 624326); type: functional;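 note: rate of fluorescence rise from hydrolysis of a fluorogenic O-methyl fluorescein ester substrate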
# [11] = molecular target: T7, Fatty acid synthase; assay: inhibition of human FAS-TE enzyme activity – biochemical, endpoint fluorescence intensity, uHTS hits, dose response (AID 624327); type: functional;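 note: fluorescence from hydrolysis of an O-methyl fluorescein acyl ester substrate by the enzyme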
# [12] = tested on: Vero; assay: cells; type: functional; conditions: Chlorocebus sabaeus
# Sequence of Nonstructural protein 1 (Q194T2 whole entry): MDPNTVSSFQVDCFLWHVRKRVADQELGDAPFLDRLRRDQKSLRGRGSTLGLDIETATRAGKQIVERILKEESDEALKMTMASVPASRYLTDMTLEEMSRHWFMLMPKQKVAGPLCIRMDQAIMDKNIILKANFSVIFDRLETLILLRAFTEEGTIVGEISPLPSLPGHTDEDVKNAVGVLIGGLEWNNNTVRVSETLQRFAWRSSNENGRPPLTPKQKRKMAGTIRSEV
# T7 sequence (P49327 whole entry): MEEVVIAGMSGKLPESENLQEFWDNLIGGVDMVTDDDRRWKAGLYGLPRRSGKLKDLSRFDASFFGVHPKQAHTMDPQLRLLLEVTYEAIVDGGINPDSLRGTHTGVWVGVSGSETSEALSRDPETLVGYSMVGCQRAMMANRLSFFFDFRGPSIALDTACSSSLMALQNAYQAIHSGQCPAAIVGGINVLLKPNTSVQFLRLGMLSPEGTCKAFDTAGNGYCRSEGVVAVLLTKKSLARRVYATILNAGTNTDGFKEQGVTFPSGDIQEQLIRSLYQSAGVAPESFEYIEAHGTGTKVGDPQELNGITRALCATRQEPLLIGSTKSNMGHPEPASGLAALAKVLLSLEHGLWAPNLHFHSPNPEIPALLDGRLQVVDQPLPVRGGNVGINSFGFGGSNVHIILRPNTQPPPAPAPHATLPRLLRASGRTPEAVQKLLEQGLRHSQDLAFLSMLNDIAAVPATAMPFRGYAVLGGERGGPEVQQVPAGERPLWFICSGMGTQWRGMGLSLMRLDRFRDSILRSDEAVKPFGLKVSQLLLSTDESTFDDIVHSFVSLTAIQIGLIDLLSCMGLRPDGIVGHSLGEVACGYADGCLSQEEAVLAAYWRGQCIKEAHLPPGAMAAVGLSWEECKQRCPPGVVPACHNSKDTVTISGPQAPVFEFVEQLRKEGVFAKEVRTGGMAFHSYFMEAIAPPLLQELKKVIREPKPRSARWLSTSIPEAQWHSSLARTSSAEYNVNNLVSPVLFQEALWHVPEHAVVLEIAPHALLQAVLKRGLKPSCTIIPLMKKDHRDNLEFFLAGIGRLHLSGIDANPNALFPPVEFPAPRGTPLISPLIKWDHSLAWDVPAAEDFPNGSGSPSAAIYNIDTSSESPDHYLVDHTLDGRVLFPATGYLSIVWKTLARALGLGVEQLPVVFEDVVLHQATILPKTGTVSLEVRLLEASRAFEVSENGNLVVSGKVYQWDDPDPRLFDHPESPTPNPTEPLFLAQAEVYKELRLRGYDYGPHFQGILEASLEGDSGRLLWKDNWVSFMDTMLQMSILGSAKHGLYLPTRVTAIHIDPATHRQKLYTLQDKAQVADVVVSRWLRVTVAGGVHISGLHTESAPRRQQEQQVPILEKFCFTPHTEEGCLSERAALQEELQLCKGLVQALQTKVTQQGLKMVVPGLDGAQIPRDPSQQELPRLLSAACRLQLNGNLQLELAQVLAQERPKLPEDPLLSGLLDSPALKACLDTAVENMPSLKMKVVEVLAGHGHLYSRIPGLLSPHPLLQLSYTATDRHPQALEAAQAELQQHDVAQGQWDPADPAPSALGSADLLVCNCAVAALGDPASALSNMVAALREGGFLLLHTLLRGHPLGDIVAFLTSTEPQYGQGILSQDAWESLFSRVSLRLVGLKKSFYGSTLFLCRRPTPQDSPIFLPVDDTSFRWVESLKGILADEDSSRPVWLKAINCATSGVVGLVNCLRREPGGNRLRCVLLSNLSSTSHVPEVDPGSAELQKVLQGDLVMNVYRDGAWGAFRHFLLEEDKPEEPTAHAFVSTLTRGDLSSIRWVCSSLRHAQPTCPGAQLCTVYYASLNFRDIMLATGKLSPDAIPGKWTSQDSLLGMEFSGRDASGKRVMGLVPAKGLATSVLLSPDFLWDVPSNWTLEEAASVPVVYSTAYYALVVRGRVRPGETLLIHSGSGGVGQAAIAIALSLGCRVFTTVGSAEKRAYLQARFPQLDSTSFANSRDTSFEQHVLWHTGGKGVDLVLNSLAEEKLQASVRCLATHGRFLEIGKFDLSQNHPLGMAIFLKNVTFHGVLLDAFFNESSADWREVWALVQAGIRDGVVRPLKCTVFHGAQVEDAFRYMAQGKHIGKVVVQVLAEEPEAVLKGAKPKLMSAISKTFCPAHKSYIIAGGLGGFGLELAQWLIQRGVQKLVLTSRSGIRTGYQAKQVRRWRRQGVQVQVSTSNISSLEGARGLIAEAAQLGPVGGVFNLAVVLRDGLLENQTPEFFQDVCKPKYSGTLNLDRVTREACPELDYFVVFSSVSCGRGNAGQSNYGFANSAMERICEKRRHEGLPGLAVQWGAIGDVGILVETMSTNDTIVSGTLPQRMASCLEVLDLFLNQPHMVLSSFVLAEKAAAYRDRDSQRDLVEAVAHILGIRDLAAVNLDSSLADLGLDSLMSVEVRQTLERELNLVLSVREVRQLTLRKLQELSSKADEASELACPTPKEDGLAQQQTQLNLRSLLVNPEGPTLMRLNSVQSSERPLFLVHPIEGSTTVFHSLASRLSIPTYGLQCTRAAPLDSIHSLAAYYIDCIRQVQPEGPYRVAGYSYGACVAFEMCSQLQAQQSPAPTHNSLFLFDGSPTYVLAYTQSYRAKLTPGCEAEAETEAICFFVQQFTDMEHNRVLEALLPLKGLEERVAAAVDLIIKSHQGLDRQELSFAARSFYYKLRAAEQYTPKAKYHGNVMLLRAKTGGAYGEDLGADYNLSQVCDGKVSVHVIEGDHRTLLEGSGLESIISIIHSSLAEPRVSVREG
smiles,measurement,setting,value
COc1cc(NC(C)CCCN)c2ncccc2c1Oc1ccccc1 (stereo not given),EC50,[1],7.94 µM (active)
same,AC50,[2],> 380 µM (inactive)
same,AC50,[3],0.466 µM (active)
CCOc1ccc(OCC)c(S(=O)(=O)NCCOC23CC4CC(CC(C4)C2)C3)c1,IC50,[4],8.71 µM (not active)
same,AC50,[5],8.76 µM (active)
O=C(O)c1ccc(CSc2nc[nH]n2)cc1,IC50,[4],< 0.4 µM (not active)
Cc1cc(C)c(NC(=S)NC(=O)c2ccc(-c3ccccc3)cc2)c(C)c1,IC50,[4],12.4 µM (not active)
CCN1CCN(Cc2ccc(NC(=O)c3cc(NC(=O)c4cnn(-c5ccccc5)c4N)cc(OC)c3)cc2C(F)(F)F)CC1,AC50,[6],11.7 µM (active)
same,AC50,[5],19.6 µM (active)
same,IC50,[7],> 20 µM (inactive)
Cc1ccc(N=Nc2ccc3ccccc3c2O)cc1,IC50,[8],5.83 µM (active)
c1ccc(CSc2ncnc3sccc23)cc1,IC50,[9],92.7 µM (inactive)
COCCOc1ccc(C(F)(F)F)cc1NC(=O)COC(=O)c1cc([N+](=O)[O-])ccc1N1CCOCC1,IC50,[10],6.42 µM (active)
same,IC50,[11],5.58 µM (active)
CCOc1ccc(NS(=O)(=O)c2ccc(NC(=S)NC(=O)CC(C)C)cc2)cc1,IC50,[4],6.89 µM (not active)
CC(=O)NNc1nc(-c2ccccc2)cs1,IC50,[10],18.2 µM (active)
same,IC50,[11],18.6 µM (active)
O=C(COC(=O)c1cc([N+](=O)[O-])ccc1NCc1ccccc1)NC1CCCCC1,IC50,[10],1.64 µM (active)
same,IC50,[11],1.31 µM (active)
same,CC50,[12],> 25 µM (active)
c1ccc(SCc2cc(-c3ccccc3)no2)cc1,IC50,[9],17.6 µM (active)
Cc1cc2cc(CN=C(S)NCc3ccccc3)ccc2n1C,IC50,[9],> 100 µM (inactive)
O=C(N=Nc1c(O)[nH]c2ccc(Cl)cc12)c1cc(-c2cccs2)nc2ccccc12,IC50,[4],10.3 µM (not active)
CCCOc1ccc(NC(=O)CC2C(=O)N(C)C(=S)N2Cc2cccs2)cc1 (stereo not given),IC50,[10],7.42 µM (active)
same,IC50,[11],9.62 µM (active)
O=C(Nc1cccc(Cl)c1)c1cc(-c2ccco2)on1,IC50,[9],> 100 µM (inactive)
Cc1ccc(C(C(=O)NCC2CCCO2)N(C(=O)c2snc(C(N)=O)c2N)c2ccc(F)cc2)o1 (stereo not given),IC50,[7],> 20 µM (inactive)
Cc1cc2cc(CNC(=O)C3CC3)ccc2n1C,IC50,[9],> 100 µM (inactive)
CC(=O)c1ccc(Sc2ccc(C(C)=O)cc2)cc1,IC50,[7],> 20 µM (inactive)
COc1ccc(OC)c(NC2c3ccccc3C(=O)N2Cc2ccc3c(c2)OCO3)c1 (stereo not given),IC50,[8],57.5 µM (active)
COc1cc2sc(-c3ccccc3OC)c(-c3ccc(OCCN4CCCCC4)cc3)c2cc1OC,AC50,[6],6.45 µM (active)
same,AC50,[5],7.69 µM (active)
same,IC50,[7],> 20 µM (inactive)
Cc1cc(Br)cn2c(Cc3ccsc3)c(-c3ccccc3)nc12,IC50,[9],> 100 µM (inactive)
CC(C)Oc1ccccc1/C=N/Nc1ccccc1[N+](=O)[O-],IC50,[8],31.2 µM (active)
